Measurements as given in ChEMBL document CHEMBL5236588 (J Med Chem, 2022).
Residues, ends and D or L forms follow the SMILES beside them.

What was measured:
[1] = Inhibition of FXIIa (unknown origin) using Ac-QRFR-pNA as substrate measured at 30 sec interval by microplate reader assay; set-up: species or system Homo sapiens
Homo sapiens = species: Homo sapiens; assay: Potency index, ratio of M8 Ki to test compound Ki for inhibition of FXIIa (unknown origin)
[2] = Inhibition of human cationic trypsin using Boc-VPR-MCA as susbtrate
Plasminogen = Plasminogen (Homo sapiens, UniProt P00747); assay: Inhibition of human plasmin using Ac-RM(O2)YR-pNA as substrate
Plasminogen, sequence (P00747 97-580 limits assumed): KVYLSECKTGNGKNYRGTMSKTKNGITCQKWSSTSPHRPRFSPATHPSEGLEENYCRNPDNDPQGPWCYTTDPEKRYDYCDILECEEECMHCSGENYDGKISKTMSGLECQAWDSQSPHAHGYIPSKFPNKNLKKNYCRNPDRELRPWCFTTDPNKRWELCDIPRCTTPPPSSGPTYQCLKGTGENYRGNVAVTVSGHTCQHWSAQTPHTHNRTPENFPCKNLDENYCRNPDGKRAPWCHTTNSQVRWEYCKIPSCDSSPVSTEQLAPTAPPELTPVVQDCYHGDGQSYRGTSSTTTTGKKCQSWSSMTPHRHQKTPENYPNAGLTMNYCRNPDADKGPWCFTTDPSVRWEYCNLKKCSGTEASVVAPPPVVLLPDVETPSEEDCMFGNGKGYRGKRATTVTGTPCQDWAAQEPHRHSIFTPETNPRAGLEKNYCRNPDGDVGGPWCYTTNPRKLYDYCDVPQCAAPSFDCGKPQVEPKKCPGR
Plasminogen, sequence (P00747 581-810 limits assumed): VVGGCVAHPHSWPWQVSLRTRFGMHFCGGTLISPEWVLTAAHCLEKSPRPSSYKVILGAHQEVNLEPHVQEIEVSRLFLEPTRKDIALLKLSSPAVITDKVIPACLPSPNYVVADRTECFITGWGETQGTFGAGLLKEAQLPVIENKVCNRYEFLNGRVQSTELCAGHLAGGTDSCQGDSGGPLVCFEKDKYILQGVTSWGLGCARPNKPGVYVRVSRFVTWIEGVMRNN

[3] = Inhibition of human FXa using Z-Pyr-GR-MCA as substrate

SMILES	Ki [1] [nM]	Ratio Ki (Homo sapiens)	Ki [2] [nM]	Ki (Plasminogen) [nM]	IC50 [3] [nM]
CC[C@H](C)[C@@H]1NC(=O)[C@H](CCCNC(=N)N)NC(=O)[C@H](Cc2ccccc2)NC(=O)[C@@H]2CSSC[C@H]3NC(=O)[C@H](C)NC(=O)CNC(=O)[C@@H]4CCCN4C(=O)[C@@H]4CSSC[C@H](NC(=O)[C@H](Cc5ccc(O)cc5)NC(=O)CNC(=O)[C@H](CC(N)=O)NC(=O)CNC(=O)[C@H](CCCNC(=N)N)NC(=O)[C@H](CSSC[C@H](NC(=O)[C@H](CCCCN)NC(=O)[C@H](CCCCN)NC(=O)[C@H](CC(C)C)NC1=O)C(=O)N[C@@H](CCCNC(=N)N)C(=O)N[C@@H](CCCNC(=N)N)C(=O)N[C@@H](CC(=O)O)C(=O)N[C@@H](CO)C(=O)N[C@@H](CC(=O)O)C(=O)N4)NC(=O)[C@H]([C@@H](C)CC)NC3=O)C(=O)NCC(=O)N[C@@H](CO)C(=O)NCC(=O)N[C@@H](CCC(N)=O)C(=O)N2	156	1.2			
CC[C@H](C)[C@@H]1NC(=O)[C@@H]2CSSC[C@@H]3NC(=O)[C@H](CCC(N)=O)NC(=O)CNC(=O)CNC(=O)[C@H](CC(=O)O)NC(=O)[C@H](CO)NC(=O)CNC(=O)[C@@H]4CSSC[C@H](NC(=O)[C@H](CC(=O)O)NC(=O)[C@H](CO)NC(=O)[C@H](CC(=O)O)NC(=O)[C@H](CCCNC(=N)N)NC(=O)[C@H](CCCNC(=N)N)NC(=O)[C@H](CSSC[C@H](NC1=O)C(=O)N[C@@H](CCCNC(=N)N)C(=O)NCC(=O)N[C@@H](CC(N)=O)C(=O)NCC(=O)N[C@@H](Cc1ccc(O)cc1)C(=O)N4)NC(=O)[C@H](CCCCN)NC(=O)[C@H](CCCCN)NC(=O)[C@H](CC(C)C)NC(=O)[C@H]([C@@H](C)CC)NC(=O)[C@H](CCCNC(=N)N)NC(=O)[C@H](Cc1ccccc1)NC3=O)C(=O)N1CCC[C@H]1C(=O)NCC(=O)N[C@@H](C)C(=O)N2 (HELM PEPTIDE1{A.C.I.C.R.G.N.G.Y.C.G.S.D.G.G.Q.C.F.R.I.L.K.K.C.R.R.D.S.D.C.P.G}$PEPTIDE1,PEPTIDE1,2:R3-17:R3|PEPTIDE1,PEPTIDE1,4:R3-24:R3|PEPTIDE1,PEPTIDE1,10:R3-30:R3|PEPTIDE1,PEPTIDE1,1:R1-32:R2$$$V2.0)	92	2.1			
CC[C@H](C)[C@@H]1NC(=O)[C@@H]2CSSC[C@H](NC(=O)[C@H](CCC(N)=O)NC(=O)CNC(=O)CN)C(=O)N[C@@H](Cc3ccccc3)C(=O)N[C@@H](CCCNC(=N)N)C(=O)N[C@@H]([C@@H](C)CC)C(=O)N[C@@H](CC(C)C)C(=O)N[C@@H](CCCCN)C(=O)N[C@@H](CCCCN)C(=O)N[C@H]3CSSC[C@H](NC1=O)C(=O)N[C@@H](CCCNC(=N)N)C(=O)NCC(=O)N[C@@H](CC(N)=O)C(=O)NCC(=O)N[C@@H](Cc1ccc(O)cc1)C(=O)N[C@H](C(=O)NCC(=O)N[C@@H](CO)C(=O)O)CSSC[C@H](NC(=O)[C@H](CC(=O)O)NC(=O)[C@H](CO)NC(=O)[C@H](CC(=O)O)NC(=O)[C@H](CCCNC(=N)N)NC(=O)[C@H](CCCNC(=N)N)NC3=O)C(=O)N1CCC[C@H]1C(=O)NCC(=O)N[C@@H](C)C(=O)N2 (HELM PEPTIDE1{G.G.Q.C.F.R.I.L.K.K.C.R.R.D.S.D.C.P.G.A.C.I.C.R.G.N.G.Y.C.G.S}$PEPTIDE1,PEPTIDE1,4:R3-21:R3|PEPTIDE1,PEPTIDE1,11:R3-23:R3|PEPTIDE1,PEPTIDE1,17:R3-29:R3$$$V2.0)	25		157	283	> 5000
CC[C@H](C)[C@@H]1NC(=O)[C@@H]2CSSC[C@H](NC(=O)[C@H](CCC(N)=O)NC(=O)CNC(=O)CN)C(=O)N[C@@H](Cc3ccccc3)C(=O)N[C@@H](CCCNC(=N)N)C(=O)N[C@@H]([C@@H](C)CC)C(=O)N[C@@H](CC(C)C)C(=O)N[C@@H](CCCCN)C(=O)N[C@@H](CCCCN)C(=O)N[C@H]3CSSC[C@H](NC1=O)C(=O)N[C@@H](CCCNC(=N)N)C(=O)NCC(=O)N[C@@H](CC(N)=O)C(=O)NCC(=O)N[C@@H](Cc1ccc(O)cc1)C(=O)N[C@H](C(=O)N[C@@H](C)C(=O)N[C@@H](CO)C(=O)O)CSSC[C@H](NC(=O)[C@H](CC(=O)O)NC(=O)[C@H](CO)NC(=O)[C@H](CC(=O)O)NC(=O)[C@H](CCCNC(=N)N)NC(=O)[C@H](CCCNC(=N)N)NC3=O)C(=O)N1CCC[C@H]1C(=O)NCC(=O)N[C@@H](C)C(=O)N2 (HELM PEPTIDE1{G.G.Q.C.F.R.I.L.K.K.C.R.R.D.S.D.C.P.G.A.C.I.C.R.G.N.G.Y.C.A.S}$PEPTIDE1,PEPTIDE1,4:R3-21:R3|PEPTIDE1,PEPTIDE1,11:R3-23:R3|PEPTIDE1,PEPTIDE1,17:R3-29:R3$$$V2.0)	106	-4.2			
CC[C@H](C)[C@@H]1NC(=O)[C@@H]2CSSC[C@@H]3NC(=O)[C@H](CCC(N)=O)NC(=O)CNC(=O)CNC(=O)[C@H](CO)NC(=O)CNC(=O)[C@H](CO)NC(=O)CNC(=O)[C@@H]4CSSC[C@H](NC(=O)[C@H](CC(=O)O)NC(=O)[C@H](CO)NC(=O)[C@H](CC(=O)O)NC(=O)[C@H](CCCNC(=N)N)NC(=O)[C@H](CCCNC(=N)N)NC(=O)[C@H](CSSC[C@H](NC1=O)C(=O)N[C@@H](CCCNC(=N)N)C(=O)NCC(=O)N[C@@H](CC(N)=O)C(=O)NCC(=O)N[C@@H](Cc1ccc(O)cc1)C(=O)N4)NC(=O)[C@H](CCCCN)NC(=O)[C@H](CCCCN)NC(=O)[C@H](CC(C)C)NC(=O)[C@H]([C@@H](C)CC)NC(=O)[C@H](CCCNC(=N)N)NC(=O)[C@H](Cc1ccccc1)NC3=O)C(=O)N1CCC[C@H]1C(=O)NCC(=O)N[C@@H](C)C(=O)N2 (HELM PEPTIDE1{A.C.I.C.R.G.N.G.Y.C.G.S.G.S.G.G.Q.C.F.R.I.L.K.K.C.R.R.D.S.D.C.P.G}$PEPTIDE1,PEPTIDE1,2:R3-18:R3|PEPTIDE1,PEPTIDE1,4:R3-25:R3|PEPTIDE1,PEPTIDE1,10:R3-31:R3|PEPTIDE1,PEPTIDE1,1:R1-33:R2$$$V2.0)	140	1.4			
CC[C@H](C)[C@@H]1NC(=O)[C@@H]2CSSC[C@H](NC(=O)[C@H](CCC(N)=O)NC(=O)CNC(=O)CN)C(=O)N[C@@H](Cc3ccccc3)C(=O)N[C@@H](CCCNC(=N)N)C(=O)N[C@@H]([C@@H](C)CC)C(=O)N[C@@H](CC(C)C)C(=O)N[C@@H](CCCCN)C(=O)N[C@@H](CCCCN)C(=O)N[C@@H]3CSSC[C@H](NC1=O)C(=O)N[C@@H](CCCNC(=N)N)C(=O)NCC(=O)N[C@@H](CC(N)=O)C(=O)NCC(=O)N[C@@H](Cc1ccc(O)cc1)C(=O)N[C@H](C(=O)NCC(=O)N[C@@H](C)C(=O)O)CSSC[C@H](NC(=O)[C@H](CC(=O)O)NC(=O)[C@H](CO)NC(=O)[C@H](CC(=O)O)NC(=O)[C@H](CCCNC(=N)N)NC(=O)[C@H](CCCNC(=N)N)NC3=O)C(=O)N1CCC[C@H]1C(=O)NCC(=O)N[C@@H](C)C(=O)N2	157				
CC[C@H](C)[C@@H]1NC(=O)[C@@H]2CSSC[C@@H]3NC(=O)[C@H](CCC(N)=O)NC(=O)CNC(=O)CNC(=O)CNC(=O)[C@H](CO)NC(=O)CNC(=O)[C@@H]4CSSC[C@H](NC(=O)[C@H](CC(=O)O)NC(=O)[C@H](CO)NC(=O)[C@H](CC(=O)O)NC(=O)[C@H](CCCNC(=N)N)NC(=O)[C@H](CCCNC(=N)N)NC(=O)[C@H](CSSC[C@H](NC1=O)C(=O)N[C@@H](CCCNC(=N)N)C(=O)NCC(=O)N[C@@H](CC(N)=O)C(=O)NCC(=O)N[C@@H](Cc1ccc(O)cc1)C(=O)N4)NC(=O)[C@H](CCCCN)NC(=O)[C@H](CCCCN)NC(=O)[C@H](CC(C)C)NC(=O)[C@H]([C@@H](C)CC)NC(=O)[C@H](CCCNC(=N)N)NC(=O)[C@H](Cc1ccccc1)NC3=O)C(=O)N1CCC[C@H]1C(=O)NCC(=O)N[C@@H](C)C(=O)N2 (HELM PEPTIDE1{A.C.I.C.R.G.N.G.Y.C.G.S.G.G.G.Q.C.F.R.I.L.K.K.C.R.R.D.S.D.C.P.G}$PEPTIDE1,PEPTIDE1,2:R3-17:R3|PEPTIDE1,PEPTIDE1,4:R3-24:R3|PEPTIDE1,PEPTIDE1,10:R3-30:R3|PEPTIDE1,PEPTIDE1,1:R1-32:R2$$$V2.0)	76	2.6			
CC[C@H](C)[C@@H]1NC(=O)[C@@H]2CSSC[C@@H]3NC(=O)[C@H](CCC(N)=O)NC(=O)CNC(=O)CNC(=O)[C@H](CO)NC(=O)[C@H](CO)NC(=O)CNC(=O)[C@@H]4CSSC[C@H](NC(=O)[C@H](CC(=O)O)NC(=O)[C@H](CO)NC(=O)[C@H](CC(=O)O)NC(=O)[C@H](CCCNC(=N)N)NC(=O)[C@H](CCCNC(=N)N)NC(=O)[C@H](CSSC[C@H](NC1=O)C(=O)N[C@@H](CCCNC(=N)N)C(=O)NCC(=O)N[C@@H](CC(N)=O)C(=O)NCC(=O)N[C@@H](Cc1ccc(O)cc1)C(=O)N4)NC(=O)[C@H](CCCCN)NC(=O)[C@H](CCCCN)NC(=O)[C@H](CC(C)C)NC(=O)[C@H]([C@@H](C)CC)NC(=O)[C@H](CCCNC(=N)N)NC(=O)[C@H](Cc1ccccc1)NC3=O)C(=O)N1CCC[C@H]1C(=O)NCC(=O)N[C@@H](C)C(=O)N2 (HELM PEPTIDE1{A.C.I.C.R.G.N.G.Y.C.G.S.S.G.G.Q.C.F.R.I.L.K.K.C.R.R.D.S.D.C.P.G}$PEPTIDE1,PEPTIDE1,2:R3-17:R3|PEPTIDE1,PEPTIDE1,4:R3-24:R3|PEPTIDE1,PEPTIDE1,10:R3-30:R3|PEPTIDE1,PEPTIDE1,1:R1-32:R2$$$V2.0)	131	1.5			
